Measured values as given in patent US6365759B1, “Intermediate compounds for preparing macrocylcic analogs” (Eisai Co., Ltd., priority 1998, dated 2002).
Where two headings read alike, the source gives them in different places.

Tests used:
[1] = tested on: DLD-1 human colon cancer cells; assay: in vitro cell growth inhibition assay using DLD-1 cells; type: cell-based
[2] = tested on: U937 human histiocytic lymphoma cells; assay: U937 Mitotic Block Reversibility Assay; type: cell-based
[3] = tested on: LOX human melanoma tumor xenograft; assay: LOX melanoma xenograft growth inhibition assay; type: in vivo, mouse; conditions: FIG. 3
Experimental: FIG. 3 is a graph showing the average tumor volume in microliters as a function of time (days) in a LOX melanoma xenograft growth inhibition assay. […] Paclitaxel and a vehicle control were used.
Many of the individually disclosed drugs were tested for in vitro and in vivo activity (see Table 1, below). Screening methods included a standard in vitro cell growth inhibition assay using DLD-1 human colon cancer cells (ATCC accession number CCL 221) in a 96-well microtiter plate format (Finlay, G. J. et al Analytical Biochemistry 139:272-277, 1984), a U937 (ATCC accession number CRL 1593) mitotic block reversibility assay (described below), and in some cases, a LOX human melanoma tumor xenograft in vivo growth inhibition assay (see Table 1). Chemical stability to esterase degradation was also examined.

SMILES	IC50 ([1]; read-out: DLD-1 mean IC50) [nM]	Complete Mitotic Block 0 hour [2] [nM]	Complete Mitotic Block 10 hour [2] [nM]	Reversibility Ratio [2]	IC50 ([1]; Homo sapiens, DLD-1, read-out: DLD-1 mean IC50) [nM]	minimum concentration required for complete mitotic block at 0 hour [2] [nM]	minimum concentration required for complete mitotic block at 10 hour [2] [nM]	reversibility ratio [2]	viability of cells at 5 days [2]	antitumor activity (average tumor volume over time) [3]
C=C1CC2CCC34CC5OC6C(OC7CCC(CC(=O)CC8C(CC9OC(CCC1O2)CC(C)C9=C)OC(CC(O)CN(CCO)CCO)C8OC)OC7C6O3)C5O4 (centres unmarked) [Compound B2489]	14.7	10	10	1.0						
C=C1CC2CCC34CC5OC6C(OC7CCC(CC(=O)CC8C(CC9OC(CCC1O2)CC(C)C9=C)OC(CC(O)CN1CCCCC1)C8OC)OC7C6O3)C5O4 (centres unmarked) [ER803834]	0.47	1	10	10.0						
C=C1CC2CCC34CC5OC6C(OC7CCC(CC(=O)CC8C(CC9OC(CCC1O2)CC(C)C9=C)OC(CC(O)CN1CCOCC1)C8OC)OC7C6O3)C5O4 (centres unmarked) [ER803868]	0.43	3	10	3.3						
C=C1C[C@@H]2CC[C@@]34C[C@H]5O[C@H]6[C@@H](O3)[C@H]3O[C@H](CC[C@@H]3O[C@@H]6[C@H]5O4)CC(=O)C[C@@H]3[C@@H](OC)[C@@H](C[C@H](O)CNC)O[C@H]3C[C@H]3O[C@@H](CC[C@@H]1O2)C[C@@H](C)C3=C [Compound B2336]	3.33	10	10	1.0						
C=C1CC2CCC34CC5OC6C(OC7CCC(CC(=O)CC8C(CC9OC(CCC1O2)CC(C)C9=C)OC(CC(O)CN(CC)CC)C8OC)OC7C6O3)C5O4 (centres unmarked) [ER803883]	1.02	1	10	10.0						
C=C1CC2CCC34CC5OC6C(O3)C3OC(CCC3O[C@H]6C5O4)CC(=O)CC3C(CC4OC(CCC1O2)CC(C)C4=C)OC(CC(O)CN)C3OC (some centres unmarked) [Compound B1939]		12	12	1.0	19.3	10	10	1	drops to very low levels	antitumor activity
C=C1CC2CCC34CC5OC6C(OC7CCC(CC(=O)CC8C(CC9OC(CCC1O2)CC(C)C9=C)OC(CC(O)CNC(C)C)C8OC)OC7C6O3)C5O4 (centres unmarked) [Compound B2330]	4.4	7	7	1.0						
C=C1CC2CCC34CC5OC6C(OC7CCC(CC(=O)CC8C(CC9OC(CCC1O2)CC(C)C9=C)OC(CC(O)CN1CCCCCC1)C8OC)OC7C6O3)C5O4 (centres unmarked) [ER803843]	0.49	1	10	10.0						
C=C1CC2CCC34CC5OC6C(OC7CCC(CC(=O)CC8C(CC9OC(CCC1O2)CC(C)C9=C)OC(CC(O)CN1CCC[C@H]1CO)C8OC)OC7C6O3)C5O4 (some centres unmarked) [ER803851]	3.33	3	3	1.0						
C=C1CC2CCC34CC5OC6C(OC7CCC(CC(=O)CC8C(CC9OC(CCC1O2)CC(C)C9=C)OC(CC(O)CNCc1ccccc1)C8OC)OC7C6O3)C5O4 (centres unmarked) [Compound B2491]	0.92	2	10	6.7						
C=C1CC2CCC34CC5OC6C(OC7CCC(CC(=O)CC8C(CC9OC(CCC1O2)CC(C)C9=C)OC(CC(O)CN(C)C)C8OC)OC7C6O3)C5O4 (centres unmarked) [Compound B2320]	1.2	1	10	10.0						
C=C1CC2CCC34CC5OC6C(OC7CCC(CC(=O)CC8C(CC9OC(CCC1O2)CC(C)C9=C)OC(CC(O)CNCCc1ccccc1)C8OC)OC7C6O3)C5O4 (centres unmarked) [ER803846]	1.16	1	10	10.0						
